The values that follow come from publication PMC11215077, “Antiviral activity of temporin-1CEb analogues against gingival infection with herpes simplex virus type 1” (Frontiers in Oral Health, 2024).

Data set [1] deals with HSV-1. Briefly: Antiviral activity in 3D organotypic model of human gingiva (OTG). Particulars: 15 μg/ml; H&E stained sections; Figure 5A. Format: cell-based, herpes simplex virus type 1. As for the experimental part:
Protocol was described previously ([34]). Briefly, to prepare 3D cultures, 150,000 gingival fibroblasts suspended in 10% FBS in DMEM were mixed with 2.4 ml of ice-cold Matrigel® (Corning) (final concentration 7 mg/ml) and placed in the middle of 12-well cell culture inserts (Greiner). Three days later, 1 × 10^6 TIGK cells suspended in EPM1 were added to the top of the insert. On the ninth day after the start of the procedure, the old culture medium was removed and EPM2 was added to the bottom of the insert. The epithelial layer on the top was exposed to the air, which promotes epithelial differentiation and then stratification. About 8–10 days after air-liquid interphase, 3D cultures of gingiva were used for further experiments.
The apical surface of OTG model was washed three times with PBS and then inoculated with 100 μl of viral stock (TCID50 400 /ml) in the presence of DAL-PEG-LK6 or CPP1-PEG-LK6 (15 μg/ml) for 2 h at 4°C. Following incubation, the unbound HSV-1 was removed by washing with PBS for 10 min at 37°C, and the OTG cultures were maintained at an air-liquid interface for the rest of the experiment. To determine viral yield, 120 μl of PBS was applied to the apical surface of the OTG, and harvested for DNA isolation after 10 min of incubation at 37°C.
Briefly, cell inserts were fixed in 10% formaldehyde at 4°C for 1 h. After embedding in paraffin, 3D cultures were cut into 5 μm sections and stained with H&E solution. For immunohistochemical analysis, slides were incubated for 1 h at room temperature in blocking buffer (5% normal goat serum, 0.1% saponin in PBS) and stained with primary antibodies anti-HSV-1 (1:100, 1% normal goat serum, 0.1% saponin in PBS; Abcam) and secondary antibodies: goat anti-rabbit conjugated with Alexa Fluor 488 (1:2000; Cell Signaling). Finally, cell nuclei were stained with ProLong Antifade Mounting Medium with DAPI. Slides were visualized with EVOS FL Cell Imaging System (Thermo Fisher Scientific).
(§1) Viral DNA was isolated from the conditioned media or the apical washes of inserts (OTG model) using Viral DNA/RNA Isolation Kit (A&A Biotechnology). The virus yield assessed by quantitative real-time PCR (qPCR). The reaction was carried out in a CFX96 Touch Real-Time PCR Detection System (Bio-Rad), in a 10 μl reaction mixture consisting of TaqMan^TM Fast Advanced Master Mix, TaqMan^TM Microbe Detection assay against HSV-1 (Vi04230116_s1) and 1 μl of viral DNA. The temperature profile was 10 s at 95°C, followed by 40 cycles of 3 s at 95°C and 20 s at 60°C. DNA quantification standards were prepared. In summary, a fragment of viral DNA was amplified using the primers listed above and cloned into the pTZ57R/T plasmid using the InsTAclone PCR cloning kit. The plasmid was propagated in E. coli, purified with the GeneJet Plasmid Miniprep Kit, and digested with the EcoR1 restriction enzyme. The number of copies per mL was estimated after the concentration of linearized DNA was assessed spectrophotometrically.

Data set [2] has as its system HSV-1. Particulars: concentration reducing viral replication by 50%; TIGKs cells pre-treated, infected and cultivated with compound; qPCR; mean of two independent experiments. On the technique in general: Real-time PCR tracks product formation cycle by cycle.
Protocol: Data were expressed as means ± SD. Statistical significance was determined using unpaired t-test, one-way ANOVA, and/or two-way ANOVA for direct comparisons between single groups. A p-value <0.05 was considered statistically significant. We used GrapPad Prism 10 software for the analyses. […]
The nature of data set [3]: in vitro.
Protocol: The viability of Vero E6 and TIGKs cells was examined by the XTT Cell Viability Assay kit (Biological Industries, USA). Briefly, cells were treated with indicated concentrations of the peptide conjugates for 48 h at 37°C. Next, the fresh medium was added to the cells and 50 μl of the activated XTT reagent [2,3-bis(2-methoxy-4-nitro-5-sulphenyl)-2H-tetrazolium-5-carboxanilide] was added and further incubated for 2 h at 37°C. Absorbance was measured at a wavelength of 480 nm using FlexStation 3 microplate reader (Molecular Device, Wokingham, UK). The results were expressed normalized against a control of untreated cells (100% viability). To assess the effect of peptide conjugate on the integrity of the plasma membrane, the LDH release assay was performed using the CytoTox96 nonradioactive cytotoxicity assay kit (Promega, Madison, WI, USA) according to the manufacturer's instructions. Cytotoxicity was calculated with the formula: % cytotoxicity = 100 × (experimental LDH release/ maximum LDH release), where maximum LDH release is after lysis solution addition (Triton X-100). Relative amounts of LDH release were measured (absorbance at 490 nm) using FlexStation 3 microplate reader (Molecular Device, Wokingham, UK). […]
Data were expressed as means ± SD. Statistical significance was determined using unpaired t-test, one-way ANOVA, and/or two-way ANOVA for direct comparisons between single groups. […]
In data set [4] the test system is HSV-1. The experiment in a line: Virus inhibition (replication) assay in Vero E6 and TIGKs cells, qPCR, titration, gB Western blot. In kind it is cell-based, herpes simplex virus type 1. Particulars: 48 h p.i. On the procedure: HSV-1 stocks were generated by infecting Vero E6 cells. Cells were lysed at 48 h p.i. by two freeze-thaw cycles. The virus containing fluid was aliquoted and stored at −80°C. A control Vero E6 cell lysate from mock-infected cells was prepared in the same manner as the virus stock. Virus yield was assessed by virus titration on fully confluent Vero E6 cells in 96-well plates, according to the method of Reed & Muench ([32]). Plates were incubated at 37°C for 48 h and the occurrence of a cytopathic effect was scored using an inverted microscope, and TCID50 (50% tissue culture infection dose) was calculated.
Vero E6 or TIGKs cells were seeded in 12-well plates and cultured for 48 h. […] After 30 min of incubation at 37°C, cells were infected with HSV-1 at TCID50 400 /ml or treated with mock. After 2 h of infection at 37°C, unbound viral particles were removed by washing with PBS, and culture media supplemented with peptide conjugates were applied. Following 48 h of incubation, media were collected, and the quantity of HSV-1 DNA copies was assessed using titration and qPCR.
as §1
Protein extracts were prepared using lysis buffer (0.25% Na-deoxycholate, 0.5% Nonidet P-40, 0.05% SDS, protease inhibitor mixture, 2.5 mM EDTA in PBS), and the protein concentration was assessed using Pierce BCA (Thermo Fisher) protein assay kit. Equal amounts of cell extracts were separated on 10% SDS-PAGE gel and electrotransferred onto polyvinylidene difluoride membranes for gB and β-actin in transfer buffer (25 mM Tris, 0.2 M glycine, and 20% ethanol) for 90 min at 100 V. Nonspecific binding sites were blocked for 90 min in 5% skimmed milk prepared in TBST buffer (20 mM Tris, pH 7.5, 0.5 M NaCl, 0.05% Tween 20). Membranes were further incubated overnight at 4°C with primary antibodies: mouse anti-HSV-1 + HSV-2 gB (1:5000; abcam) and mouse anti-β-actin (1:4,000; BD Biosciences). The following day, membranes were washed three times with TBST buffer and incubated with HRP-conjugated secondary antibodies for 60 min at 37°C: goat anti-mouse IgG (1:20,000; β-actin; BD Bioscience) or sheep anti-mouse IgG (1:50,000; gB; Sigma Aldrich). Next, blots were washed five times for 5 min in TBST buffer, developed using Luminata Cresecendo Substarte (Merck) and exposed to AGFA medical x-ray film. Densitometry analysis was performed using ImageJ 1.52q software.

A short description of data set [5]: Analytical RP-HPLC retention time. Particulars: Phenomenex Jupiter 4 μ Proteo 90 Å, 250 × 4.60 mm, listed as basic physicochemical characteristic. As for the experimental part: The synthesized compounds were then purified by reverse-phase high-performance liquid chromatography (RP-HPLC) on a Waters system (Phenomenex Jupiter 4 μ Proteo 90 Å column, 250 × 10 mm). A linear gradient from 10% to 80% of solvent B over 60 min (Solvent A: 0.1% TFA in water; Solvent B: 80% acetonitrile in Solvent A) was employed with a flow rate 5 ml/min. The homogeneity of the final peptide fractions was analyzed using a Shimadzu HPLC System (Shimadzu Europe GmbH, Duisburg, Germany) equipped with a Phenomenex Jupiter 4 μ Proteo 90 Å column, 250 × 4.60 mm. The mass spectra of the synthesized peptides were recorded using a Biflex III MALDI-TOF mass spectrometry (Bruker, Mannheim, Germany) with α-cyano-4-hydroxy-cinnamic acid (CCA) or 2,5-dihydroxybenzoic acid (DHB) used as the matrix.

The subject of data set [6] is HSV-1. The arrangement: method as in PMID 29483113. Particulars: different model of epithelial cells; cited from earlier work. The source says:
In our studies, we initially utilized the Vero E6 cell line, which has been a long-standing choice in herpesviruses research ([40], [41]).

Converted amounts (≈) assume the structure as drawn. Read-outs that look alike come from different tables or passages of the source. Square brackets hold non-standard residues; d marks the D form. Peptide text beside a SMILES is read from it. AEEA = NCCOCCOCC(=O)O

On to `CC[C@H](C)[C@H](NC(=O)COCCOCCNC(=O)[C@H](CCCNC(=N)N)NC(=O)[C@H](CC(C)C)NC(=O)[C@H](Cc1ccccc1)NC(=O)CNC(=O)[C@@H](C)NC(=O)[C@@H](N)Cc1ccc(O)cc1)C(=O)N[C@@H](CCCCN)C(=O)N[C@@H](CCCCN)C(=O)N[C@H](C(=O)N[C@@H](CC(C)C)C(=O)N[C@@H](CO)C(=O)N[C@H](CCCCN)C(=O)N[C@H](C(=O)N[C@@H](CCCCN)C(=O)N[C@@H](CCCCN)C(=O)N[C@@H](CC(C)C)C(=O)N[C@@H](CC(C)C)C(N)=O)[C@@H](C)CC)[C@@H](C)CC` [DAL-PEG-DK5] (H-Y[dA]GFLR[AEEA]IKKILS[dK]IKKLL-NH2), for which, in data set [1], the “morphology of epithelial cells in OTG (H&E)” value is listed as “no changes in the morphology of epithelial cells”. Consider `CC[C@H](C)[C@H](NC(=O)COCCOCCNC(=O)[C@H](CCCNC(=N)N)NC(=O)[C@H](CC(C)C)NC(=O)[C@H](Cc1ccccc1)NC(=O)CNC(=O)[C@@H](C)NC(=O)[C@@H](N)Cc1ccc(O)cc1)C(=O)N[C@@H](CCCCN)C(=O)N[C@@H](CCCCN)C(=O)N[C@H](C(=O)N[C@@H](CC(C)C)C(=O)N[C@@H](CO)C(=O)N[C@@H](CCCCN)C(=O)N[C@H](C(=O)N[C@@H](CCCCN)C(=O)N[C@@H](CCCCN)C(=O)N[C@@H](CC(C)C)C(=O)N[C@@H](CC(C)C)C(=O)N[C@@H](CCCCN)C(N)=O)[C@@H](C)CC)[C@@H](C)CC` [DAL-PEG-LK6] (H-Y[dA]GFLR[AEEA]IKKILSKIKKLLK-NH2), for which, in data set [2], the IC50 – broadly, the concentration needed to halve the response being measured – was 3.699 µg/mL (≈ 1.54 µM). The CC50 at 48 h in data set [3] stood at 33.8 µg/mL (≈ 14.1 µM). For the molecule “RKKRRQRRR-O2Oc-IKKILSKIKKLLK-NH2 [CPP2-PEG-LK6, conjugate of cationic cell-penetrating peptide (HIV-1 TAT49–57 fragment) with LK6 via PEG linker]”, in data set [4] (Figure 1C, Vero E6 (DAL-PEG-LK6 and CPP1-PEG-LK6 25 μg/ml; CPP2-PEG-LK6 10 μg/ml) and TIGKs cells (15 μg/ml)), the “reduction in viral yield in the qPCR test” value was 1 log. Further, the “reduction of virus replication in titration assay” value in data set [4] (Figure 1D, both cell models (Vero E6, TIGKs), normalized to untreated control) came to 97%. In data set [5], this molecule yielded a Rt of 20.094. With temporin B, the IC50 in data set [6] was 93 µg/mL.
